Assays:
rats = conditions: intraperitoneal 3.0 mg/kg or intranasal 4.0 mg/kg, regardless of route
Procedure: Compounds were administered 20-30 minutes prior to the charcoal meal (2 mL/rat). Rats were sacrificed 30 minutes after receiving the meal. % transit was calculated as the ratio of the travel distance of the charcoal marker divided by the full length of the small intestine multiplied by 100%. Data are presented as the mean±1 SEM. (n=8 Rats/group).
In order to determine whether intransasal N/OFQ, which has a similar analgesic efficacy to that of strong opiates, would also produce constipation, the effects of intranasal N/OFQ on gastric transit time was assessed. […] Stomach and small intestine were immediately removed and both the total length of small intestine and the distance traveled by the charcoal were recorded. Percent transit was calculated as the ratio of charcoal distance divided by total small intestine length multiplied by 100%.

male rats = assay: Facial formalin model of tonic pain (formalin injection into the lip, facial wiping/grooming); format: in vivo; conditions: rat lip formalin
Procedure: Time spent grooming was determined over 45 minutes and grouped in 3 minute bins. […] The area under the curve (AUC) for each compound or vehicle was approximated using the trapezodial method. % Reduction=[(Vehicle AUC−Treatment AUC)/Vehicle AUC)]×100%. Data are presented as the mean±1 SEM. (n=6-8 Rats/group).
The paw formalin model is widely used to assess tonic pain efficacy of putative and known analgesic treatments.

NOP receptor = target: T1, NOP receptor (Rattus norvegicus, UniProt P35370); assay: Effect of nociceptin antagonist on intranasal nociceptin induced reduction of thermal nociception; format: in vivo; conditions: subcutaneous 10.0 mg/kg, 45 minutes before i.n. nociceptin (5.0 mg/kg); rat cheek and hindpaw
T1 construct: from tissue; host or cells: whole living male Sprague-Dawley rats (in vivo)
From the text: This experiment was to verify the binding site of nociceptin induced analgesia in a thermal nociceptive rodent model.
(A) Groups of six rats per test run were lightly anesthetized with urethane (1.0 g/kg, i.p., titrated to minimal activity in the absence of a stimulus) (Sherman and Loomis et al, 1996). The left and right cheeks and right hindpaw were blackened with India ink to allow even heat distribution.
(B) Each 200-300 g male Sprague-Dawley rat was subjected to varying heat intensities on the left and right check and right hindpaw for selective testing of A-delta vs. C fiber nociception (Yeomans et al., 1996). • For C-fiber testing, the heat intensity was adjusted by altering the supply voltage of a focused projector lamp until a withdrawal latency between 9-13 seconds was observed. […] To reduce the potential for tissue damage, a cut-off latency of 20 seconds was used after which the stimulus was terminated. […]
(E) Withdrawal latencies were measured in response to radiant heat stimulation of the left and right cheeks, followed by similar measurements of response latencies for each hindpaw. […]
The efficacy of nasal application of nociceptin was measured in rats pretreated with subcutaneous nociceptin antagonist in comparison to rats pre-treated with subcutaneous saline vehicle. […]

T1 sequence (P35370 whole entry): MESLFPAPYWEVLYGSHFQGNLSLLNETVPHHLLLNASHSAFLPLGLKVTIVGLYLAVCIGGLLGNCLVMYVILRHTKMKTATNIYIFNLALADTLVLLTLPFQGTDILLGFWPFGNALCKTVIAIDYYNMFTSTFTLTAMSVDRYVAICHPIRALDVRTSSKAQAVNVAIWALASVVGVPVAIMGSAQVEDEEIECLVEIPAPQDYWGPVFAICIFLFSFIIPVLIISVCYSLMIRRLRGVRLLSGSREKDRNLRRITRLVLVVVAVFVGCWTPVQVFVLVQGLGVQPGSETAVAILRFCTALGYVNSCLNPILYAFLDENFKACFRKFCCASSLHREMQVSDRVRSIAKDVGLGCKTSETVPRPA

## CN1CC[C@]23c4c5ccc(O)c4O[C@H]2[C@@H](O)C=C[C@H]3[C@H]1C5 [morphine]
rats
  effect on intestinal transit (percent transit): considerable slowing of transit
Male rats; 3 mg/kg i.n.
  maximal inhibition of facial wiping behavior: 80.2%

## CNS(=O)(=O)Cc1ccc2[nH]cc(CCN(C)C)c2c1 [sumatriptan]
Male rats; ip, 42 mg/kg i.p., read-out: inhibition of facial wiping behavior
  inhibition at 42 mg/kg: 43.8%

## Cc1cccc2c1CC[C@@H](CN1CCC(c3c(Cl)cccc3Cl)CC1)C[C@H]2O [SB-612111, (−)-cis-1-methyl-7-[[4-(2,6-dichlorophenyl)piperidin-1-yl]-methyl]-6,7,8,9-tetrahydro-5H-benzocyclohepten-5-ol]
NOP receptor
  effect on analgesic activity of intranasal nociceptin: apparent block of the analgesic activity of nociceptin
